# T1: Pig porcine α-amylase (PPA) (Sus scrofa, UniProt P00690)
# T1 construct: gene AMY2; commercial native enzyme (Sigma-Aldrich A4268)
# T1 sequence (P00690 16-511): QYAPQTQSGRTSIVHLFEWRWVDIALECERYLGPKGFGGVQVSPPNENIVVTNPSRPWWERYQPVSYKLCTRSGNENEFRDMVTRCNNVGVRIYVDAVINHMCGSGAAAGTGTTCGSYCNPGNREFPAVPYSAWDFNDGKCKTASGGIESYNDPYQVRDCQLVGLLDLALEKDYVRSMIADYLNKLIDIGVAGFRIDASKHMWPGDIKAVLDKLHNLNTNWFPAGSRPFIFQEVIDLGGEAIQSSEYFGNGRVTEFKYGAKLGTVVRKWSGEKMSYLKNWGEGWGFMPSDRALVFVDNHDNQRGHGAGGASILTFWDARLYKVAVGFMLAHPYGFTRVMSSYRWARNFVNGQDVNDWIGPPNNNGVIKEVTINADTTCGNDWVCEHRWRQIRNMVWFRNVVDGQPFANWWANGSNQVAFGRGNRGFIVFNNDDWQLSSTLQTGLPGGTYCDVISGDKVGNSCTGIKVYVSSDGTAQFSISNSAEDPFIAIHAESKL
# T2: Pseudoalteromonas haloplanktis α-amylase (AHA) (Pseudoalteromonas haloplanktis, UniProt P29957)
# T2 construct: gene amy; recombinant, E. coli, same protocol as pLipA (IMAC, then HiTrap SP)
# T2 sequence (P29957 25-477): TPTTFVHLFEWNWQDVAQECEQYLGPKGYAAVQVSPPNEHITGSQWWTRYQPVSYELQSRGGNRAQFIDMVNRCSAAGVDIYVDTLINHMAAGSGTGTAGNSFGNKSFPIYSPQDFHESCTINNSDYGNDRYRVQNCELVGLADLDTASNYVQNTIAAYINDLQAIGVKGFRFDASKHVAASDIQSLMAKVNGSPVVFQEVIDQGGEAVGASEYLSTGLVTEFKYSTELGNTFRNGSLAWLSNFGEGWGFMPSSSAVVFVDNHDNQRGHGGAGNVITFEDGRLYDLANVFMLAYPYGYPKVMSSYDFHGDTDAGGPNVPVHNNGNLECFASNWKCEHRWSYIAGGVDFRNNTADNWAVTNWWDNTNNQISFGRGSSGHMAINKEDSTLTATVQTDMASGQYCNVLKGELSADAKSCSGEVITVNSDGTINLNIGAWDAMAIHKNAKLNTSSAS
# How the values were obtained:
# [1] = molecular target: T1, Pig porcine α-amylase (PPA); experiment: colourimetric, […] nm, temperature gradient (ThermoSlope); type: biochemical; details: phosphate buffered saline; 0.45 nM enzyme; 283-363 K, 1 K/min
# [2] = molecular target: T3, Bacillus licheniformis α-amylase (BLA) (Bacillus licheniformis, UniProt P06278); experiment: as above; type: biochemical; details: phosphate buffered saline; 3.8 µM enzyme; 303-363 K, 2 K/min
# T3 construct: gene amyS; commercial enzyme (Sigma-Aldrich A3403)
# T3 sequence (P06278 30-512): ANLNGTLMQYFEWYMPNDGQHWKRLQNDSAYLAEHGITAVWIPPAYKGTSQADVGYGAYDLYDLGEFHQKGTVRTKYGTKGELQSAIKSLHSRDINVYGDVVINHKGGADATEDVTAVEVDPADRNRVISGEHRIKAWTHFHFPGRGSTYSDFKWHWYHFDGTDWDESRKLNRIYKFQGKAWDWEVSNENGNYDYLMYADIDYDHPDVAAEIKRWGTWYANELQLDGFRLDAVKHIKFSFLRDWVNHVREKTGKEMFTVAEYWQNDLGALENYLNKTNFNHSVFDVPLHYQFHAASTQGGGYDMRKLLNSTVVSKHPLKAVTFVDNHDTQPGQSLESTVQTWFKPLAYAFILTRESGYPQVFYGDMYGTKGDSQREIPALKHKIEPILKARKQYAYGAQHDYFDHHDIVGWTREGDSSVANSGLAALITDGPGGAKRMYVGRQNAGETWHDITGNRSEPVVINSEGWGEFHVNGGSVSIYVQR
# [3] = molecular target: T2, Pseudoalteromonas haloplanktis α-amylase (AHA); experiment: as above; type: biochemical; details: phosphate buffered saline; 60 nM enzyme; 283-306 K, 1 K/min
# [4] = substrate: CCCC(=O)Oc1ccc([N+](=O)[O-])cc1; experiment: purified protein; type: biochemical, Bacillus pumilus; details: 298 K, 50 mM potassium phosphate pH 7.2, 5% acetonitrile, 1 nM enzyme, stepwise approach, 25.0 °C
Molecule,"colourimetric, 405 nm, temperature gradient (ThermoSlope) [1]","colourimetric, 405 nm, temperature gradient (ThermoSlope) [2]","colourimetric, 405 nm, temperature gradient (ThermoSlope) [3]",Km [4],kcat [4]
O=[N+]([O-])c1ccc(O[C@H]2O[C@H](CO)[C@@H](O[C@H]3O[C@H](CO)[C@@H](O[C@H]4O[C@H](CO)[C@@H](O)[C@H](O)[C@H]4O)[C@H](O)[C@H]3O)[C@H](O)[C@H]2O)c(Cl)c1 [2-Chloro-4-nitrophenyl-α-D-maltotrioside],α-amylases were completed in a similar fashion using the ThermoSlope-approach with the chromogenic substrate,α-amylases were completed in a similar fashion using the ThermoSlope-approach with the chromogenic substrate,α-amylases were completed in a similar fashion using the ThermoSlope-approach with the chromogenic substrate,,
"pLipA (Bacillus pumilus LipA; Lipase L5) (Bacillus pumilus) (protein, residues 35-215, codon-optimised synthetic gene in pET-22b(+) NdeI/XhoI, His-tag purified (tag removal not mentioned), E. coli NiCo21(DE3)) AEHNPVVMVHGMGGASYNFASIKSYLVTQGWDRNQLFAIDFIDKTGNNRNNGPRLSRFVKDVLGKTGAKKVDIVAHSMGGANTLYYIKNLDGGDKIENVVTLGGANGLVSLRALPGTDPNQKILYTSVYSSADMIVVNSLSRLIGARNVLIHGVGHISLLASSQVKGYIKEGLNGGGQNTN",,,,500 ± 100 µM,310 ± 20 s⁻¹
